# Experiments:
# Sirtuin-1 = conditions: reduces oxidative stress and inflammatory response; Zhang et al. 2021; cited from earlier work
# Loricrin = assay: Skin barrier marker by flow cytometry in hDF; type: cell-based, Human; conditions: 0.003% DHK
# Experimental: (§1) Human dermal fibroblasts (hDF) were treated with test article of interest. Barrier markers of interest were measured by flow cytometry.
# Filaggrin = assay: Skin barrier marker by flow cytometry in hDF; type: cell-based, Human; conditions: 0.003% DHK
# Experimental: as §1
# [1] = Venditti et al. 2013; Liang et al. 2020; cited from earlier work
# PPAR-72 = conditions: stimulates glucose uptake; Zhang et al. 2011; cited from earlier work
# [2] = mice; Liang et al. 2020; cited from earlier work
# [3] = Solubility of dihydrokaempferol in various solvents; type: physicochemical
# From the text: Table 1, provided below, provides solubility data for dihydrokaempferol in various solvents.
# [4] = DPPH antioxidant activity assay (organic medium); type: biochemical
# From the text: The 2,2-diphenyl-1-picrylhydrazyl (DPPH) antioxidant assay is designed to evaluate the antioxidant activity of compositions comprising dihydrokaempferol in an organic medium. 2,2-diphenyl-1-picrylhydrazyl (DPPH) is a stable free radical used to evaluate free radical scavenging capacity of a material. In the presence of an antioxidant DPPH is reduced, resulting in the formation of a colorless solution. Reduction of absorbance at 517 nm is standardized to solvent control as an indication of DPPH scavenging.
# glycation = assay: Glycation inhibition assay; type: biochemical
# Experimental: The assay was conducted to evaluate the glycation inhibition activity of compositions comprising dihydrokaempferol.
# Nonenzymatic glycation can occur when glucose reacts with proteins, forming a Schiff base intermediate that subsequently undergoes Amadori rearrangement to form glycosylated proteins, when they react with skin proteins to form Advanced Glycation End products (AGE). AGE formation can result in loss of skin elasticity and impaired cellular function. The glycation inhibition ability of a compound is measured by change in fluorescence at excitation/emission of 360 nm/420 nm relative to solvent control.
# Elastin = assay: Anti-aging: elastin ELISA in hDF; type: cell-based, Human
# Experimental: Human dermal fibroblasts (hDF) were treated with test article of interest. Elastin was quantified by ELISA.
# [5] = test system: Human dermal fibroblasts (hDF); assay: Wound healing: fibroblast regrowth after insert removal, image analysis; type: cell-based; conditions: 0.003% DHK
# Experimental: Human dermal fibroblasts (hDF) were plated in the presence of a growth-preventing insert. The insert was subsequently removed and regrowth measured by image analysis.
# [6] = test system: Vascular Endothelial Growth Factor A (VEGFA); assay: Differential gene expression in keratinocytes; type: cell-based; conditions: normal human epidermal keratinocytes, 1% DHK
# From the text: (§2) Log 2fold changes are detailed in FIG. 4. Table 13, provided below, highlights certain examples of differential gene expression in normal human epidermal keratinocytes treated with compositions comprising 1% DHK.
# [7] = test system: C-X-C Motif Chemokine Ligand 2 (CXCL2); assay: Differential gene expression in keratinocytes; type: cell-based; conditions: normal human epidermal keratinocytes, 1% DHK
# From the text: as §2
# Interleukin 24 (IL24) = assay: Differential gene expression in keratinocytes; type: cell-based; conditions: normal human epidermal keratinocytes, 1% DHK
# From the text: as §2
# [8] = test system: Fibroblast Growth Factor 2 (FGF2); assay: Differential gene expression in keratinocytes; type: cell-based; conditions: normal human epidermal keratinocytes, 1% DHK
# From the text: as §2
# Thrombospondin 4 (THBS4) = assay: Differential gene expression in keratinocytes; type: cell-based; conditions: normal human epidermal keratinocytes, 1% DHK
# From the text: as §2
# Interleukin 6 (IL6) = assay: Differential gene expression in keratinocytes; type: cell-based; conditions: normal human epidermal keratinocytes, 1% DHK
# From the text: as §2
# [9] = test system: C-X-C Motif Chemokine Ligand 1 (CXCL1); assay: Differential gene expression in keratinocytes; type: cell-based; conditions: normal human epidermal keratinocytes, 1% DHK
# From the text: as §2
# [10] = test system: Tumor Necrosis Factor (TNF); assay: Differential gene expression in keratinocytes; type: cell-based; conditions: normal human epidermal keratinocytes, 1% DHK
# From the text: as §2
# [11] = test system: Transient Receptor Potential Cation Channel Subfamily (TRPV6); assay: Differential gene expression in keratinocytes; type: cell-based; conditions: normal human epidermal keratinocytes, 1% DHK
# From the text: as §2
# [12] = Venditti et al. 2013; Liang et al. 2020; cited from earlier work; remark: listed apart in the source
# macrophage cell lines = macrophage cell lines and skin; Venditti et al. 2013; Lee et al. 2013; cited from earlier work
structure (smiles),measurement,setting,value
O=C1c2c(O)cc(O)cc2O[C@H](c2ccc(O)cc2)[C@H]1O [dihydrokaempferol],Effect on Sirtuin-1,Sirtuin-1,upregulates
same,% Total Population,Loricrin,19.3%
same,% Total Population,Filaggrin,42.2%
same,Function as antioxidant,[1],antioxidant
same,Effect on PPAR-72 expression,PPAR-72,increases
same,Treatment of severe acute pancreatitis,[2],treatment for severe acute pancreatitis
same,Solubility (% w/w),"[3]; Solvent: 1,2 Propanediol",0.00 % w/w
same,Solubility (% w/w),"[3]; Solvent: 1,2 heptanediol",5.00 % w/w
same,Solubility (% w/w),"[3]; Solvent: 3-methyl-1,3-butanediol",0.00 % w/w
same,Solubility (% w/w),[3]; Solvent: Butylene glycol,5.00 % w/w
same,Solubility (% w/w),[3]; Solvent: C9-12 Alkane,0.00 % w/w
same,Solubility (% w/w),[3]; Solvent: C15-19 Alkane,0.00 % w/w
same,Solubility (% w/w),[3]; Solvent: Capric/Caprylic Triglyceride,0.00 % w/w
same,Solubility (% w/w),[3]; Solvent: Di(propylene glycol) dibenzoate,0.00 % w/w
same,Solubility (% w/w),[3]; Solvent: Dimethyl Isosoribide,20.00 % w/w
same,Solubility (% w/w),[3]; Solvent: Ethoxydiglycol,25.00 % w/w
same,Solubility (% w/w),[3]; Solvent: Isoamyl Laurate,0.00 % w/w
same,Solubility (% w/w),[3]; Solvent: Isopentyldiol,5.00 % w/w
same,Solubility (% w/w),[3]; Solvent: Isopropyl Lauroyl sarcosinate,10.00 % w/w
same,Solubility (% w/w),[3]; Solvent: Isopropyl Myristate,0.00 % w/w
same,Solubility (% w/w),[3]; Solvent: Jojoba Oil,0.00 % w/w
same,Solubility (% w/w),[3]; Solvent: Neopentyl Glycol Dihexanoate,0.00 % w/w
same,Solubility (% w/w),[3]; Solvent: Oleyl Alcohol,0.00 % w/w
same,Solubility (% w/w),[3]; Solvent: Pentylene glycol,5.00 % w/w
same,Solubility (% w/w),[3]; Solvent: Phenylpropanol,0.00 % w/w
same,Solubility (% w/w),[3]; Solvent: Propanediol,5.00 % w/w
same,Solubility (% w/w),[3]; Solvent: Squalene,0.00 % w/w
same,Solubility (% w/w),[3]; Solvent: Sunflower Oil,0.00 % w/w
same,Solubility (% w/w),[3]; Solvent: Tri C12-13 alkyl citrate,0.00 % w/w
same,Solubility (% w/w),[3]; Solvent: Tributyl citrate,0.00 % w/w
same,Solubility (% w/w),[3]; Solvent: Tributyl-O-acetylcitrate,0.00 % w/w
same,Solubility (% w/w),[3]; Solvent: Triethyl Citrate,0.00 % w/w
same,Solubility (% w/w),[3]; Solvent: Triethyl-O-acetylcitrate,0.00 % w/w
same,Solubility (% w/w),[3]; Solvent: Triisostearin,0.00 % w/w
same,Solubility in words,[3]; in Helianthus Annuus (Sunflower) Seed Oil,insoluble
same,Solubility in words,[3]; in a number of other commonly used solvents,minimally soluble
same,Solubility in words,[3]; in capric/caprylic triglyceride,minimally soluble
same,Solubility in words,"[3]; in dimethyl isosorbide, ethoxydiglycol, glycol, isopropyl lauroyl sarcosinate, pentylene glycol, 1,2 hexanediol, propanediol, butylene glycol, phenylpropanol, isopentyldiol, 1,2 heptanediol",soluble
same,Solubility in words,[3]; in isopropyl myristate,minimally soluble
same,Solubility in words,[3]; in oil,poorly soluble or insoluble
same,Solubility in words,[3]; in water,poorly soluble or insoluble
same,% Radical Inhibition,"[4]; DPPH, 0.016 % w/w",16.54%
same,% Radical Inhibition,"[4]; DPPH, 0.031 % w/w",31.00%
same,% Radical Inhibition,"[4]; DPPH, 0.063 % w/w",61.12%
same,IC50 antioxidant activity,"[4]; DPPH, organic solvent system, calculated",0.05 % w/w
same,Lowest concentration with antioxidant activity,[4]; organic solvent systems,0.016 % w/w
same,Lowest concentration inhibiting glycation,glycation,0.004 % w/w
same,% Glycation Inhibition,glycation; 0.004 % w/w,25.05%
same,% Glycation Inhibition,glycation; 0.011 % w/w,42.23%
same,% Glycation Inhibition,glycation; 0.033 % w/w,64.87%
same,% Glycation Inhibition,glycation; 0.100 % w/w,82.42%
same,IC50 glycation inhibition,glycation; calculated,0.016 % w/w
same,Elastin,Elastin; 0.001% DHK,23.1 ng/mL
same,Elastin,Elastin; 0.003% DHK,16.6 ng/mL
same,Elastin,Elastin; 0.005% DHK,15.9 ng/mL
same,Closure Rate 24 hr,[5]; 24 hr,4.17
same,Closure Rate 48 hr,[5]; 48 hr,9.40
same,Log2 Fold Change,[6],2.32
same,Log2 Fold Change,[7],−4.19
same,Log2 Fold Change,Interleukin 24 (IL24),−2.01
same,Log2 Fold Change,[8],1.82
same,Log2 Fold Change,Thrombospondin 4 (THBS4),3.30
same,Log2 Fold Change,Interleukin 6 (IL6),−5.54
same,Log2 Fold Change,[9],−1.91
same,Log2 Fold Change,[10],−3.39
same,Log2 Fold Change,[11],2.19
same,Function as anti-diabetic,[12],anti-diabetic
same,Anti-inflammatory activity,macrophage cell lines,anti-inflammatory activity

# From patent publication US20250057748A1, “FORMULATIONS OF DIHYDROKAEMPFEROL” (DEBUT BIOTECHNOLOGY, INC., priority 2023, published 2025)
